In the supplement of paper PMC8671470:

Legend:
Details in all cases: 72 h
HL-60 [1] = assay: cell viability (% survival relative to DMSO control); higher = less cytotoxic
Summary of the method: (§1)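 Area under the curve, where listed, was derived from four-parameter log-logistic fits with drc and PharmacoGx. These fits used CellTiter-Glo viability from HL-60 cells in RPMI 1640 with 10% FBS, normalised to DMSO wells and wells holding 10 μM proteasome inhibitor. The full library was rescreened on 384-well plates in duplicate at five tenfold concentrations, 1–10,000 nM, with DMSO or 100 nM of one of three metabolic inhibitors, for 72 h at 37 °C, 5% CO2.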

[2] = system: myeloid leukemia patient primary cells Pat.10; assay: cell viability (% survival relative to DMSO control); higher = less cytotoxic
Summary of the method: (§2)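 Thawed, Ficoll-purified mononuclear cells from AML or CML patients in RPMI 1640 with 10% FBS were seeded at 10,000 cells/well on 384-well plates pre-printed with 70 compounds at five tenfold concentrations, 1–10,000 nM, in duplicate, for 72 h. Viability was read by CellTiter-Glo and normalised to DMSO and 10 μM proteasome-inhibitor wells. Where given, area under the curve came from four-parameter log-logistic fits (drc, PharmacoGx R packages).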

[3] = system: myeloid leukemia patient primary cells Pat.11; assay: as above
Summary of the method: as §2

[4] = system: myeloid leukemia patient primary cells Pat.12; assay: as above
Summary of the method: as §2

[5] = system: myeloid leukemia patient primary cells Pat.13; assay: as above
Summary of the method: as §2

[6] = system: myeloid leukemia patient primary cells Pat.14; assay: as above
Summary of the method: as §2

[7] = system: myeloid leukemia patient primary cells Pat.15; assay: as above
Summary of the method: as §2

[8] = system: myeloid leukemia patient primary cells Pat.1; assay: as above
Summary of the method: as §2

[9] = system: myeloid leukemia patient primary cells Pat.2; assay: as above
Summary of the method: as §2

[10] = system: myeloid leukemia patient primary cells Pat.3; assay: as above
Summary of the method: as §2

[11] = system: myeloid leukemia patient primary cells Pat.4; assay: as above
Summary of the method: as §2

[12] = system: myeloid leukemia patient primary cells Pat.5; assay: as above
Summary of the method: as §2

[13] = system: myeloid leukemia patient primary cells Pat.6; assay: as above
Summary of the method: as §2

[14] = system: myeloid leukemia patient primary cells Pat.7; assay: as above
Summary of the method: as §2

[15] = system: myeloid leukemia patient primary cells Pat.8; assay: as above
Summary of the method: as §2

[16] = system: myeloid leukemia patient primary cells Pat.9; assay: as above
Summary of the method: as §2

HL-60 [17] = assay: area under dose-response curve (viability, 1 nM-10 uM) (fraction (0-1)); higher = more sensitive
Summary of the method: as §1

CN(Cc1cnc2nc(N)nc(N)c2n1)c1ccc(C(=O)N[C@@H](CCC(=O)O)C(=O)O)cc1 [Methotrexate]
cell viability [%], HL-60 [1]
Details	0.001 µM	0.01 µM	0.1 µM	1 µM	10 µM
co-treatment: AZD3965 100 nM	108	50.6	28	26.3	26.8
co-treatment: DMSO vehicle	101.2	68.4	42.4	32.7	41.2
co-treatment: GSK2194069 100 nM	110	72.4	39	27.9	29.7
co-treatment: pictilisib 100 nM	104	69.8	32.358	27.3	28.1

Details	area under dose-response curve, co-treatment: AZD3965 100 nM	area under dose-response curve, co-treatment: DMSO vehicle	area under dose-response curve, co-treatment: GSK2194069 100 nM	area under dose-response curve, co-treatment: pictilisib 100 nM	cell viability, 1 nM [%]	cell viability, 10 nM [%]	cell viability, 100 nM [%]	cell viability, 1000 nM [%]	cell viability, 10000 nM [%]
HL-60 [17]	0.618	0.523	0.515	0.544	–	–	–	–	–
[2]	–	–	–	–	68.8	42.2	80.2	23	15.2
[3]	–	–	–	–	96.2	98.4	97.3	81.7	95.5
[4]	–	–	–	–	> 100	98.1	97.4	87	97.3
[5]	–	–	–	–	96.4	88.3	82.7	58.2	88.5
[6]	–	–	–	–	89	94.6	87.8	22.5	35.6
[7]	–	–	–	–	95.4	89.3	> 100	80.5	91.1
[8]	–	–	–	–	99.6	> 100	87.7	72.5	92.6
[9]	–	–	–	–	98.8	96.8	98.1	75.3	63.1
[10]	–	–	–	–	46	95	40	10.9	5.65
[11]	–	–	–	–	88	87.6	70.2	73.6	95.8
[12]	–	–	–	–	98.7	50.1	57.6	< 0	46.4
[13]	–	–	–	–	99.7	95.8	97.1	67.7	92
[14]	–	–	–	–	94.1	89.1	56.6	15.2	34.5
[15]	–	–	–	–	76.5	89.1	96.3	70.3	86.1
[16]	–	–	–	–	51.4	92.2	25.9	6.38	0.492

CC(=O)Nc1nc(C)c(-c2ccc(Cl)c(S(=O)(=O)NCCO)c2)s1 [PIK93]
cell viability [%], HL-60 [1]
Details	0.001 µM	0.01 µM	0.1 µM	1 µM	10 µM
co-treatment: AZD3965 100 nM	102.8	103	100	77.3	13.3
co-treatment: DMSO vehicle	98.3	101	99.6	85.1	23.5
co-treatment: GSK2194069 100 nM	102	106	103	81.7	18.2
co-treatment: pictilisib 100 nM	102	107	97	70.2	16.6

Details	area under dose-response curve, co-treatment: AZD3965 100 nM	area under dose-response curve, co-treatment: DMSO vehicle	area under dose-response curve, co-treatment: GSK2194069 100 nM	area under dose-response curve, co-treatment: pictilisib 100 nM	cell viability, 1 nM [%]	cell viability, 10 nM [%]	cell viability, 100 nM [%]	cell viability, 1000 nM [%]	cell viability, 10000 nM [%]
HL-60 [17]	0.172	0.135	0.154	0.181	–	–	–	–	–
[2]	–	–	–	–	65.9	22.6	56.6	60.8	16.8
[3]	–	–	–	–	96.6	85.4	88.7	54.6	32.4
[4]	–	–	–	–	94.1	92.3	95.9	88.3	79
[5]	–	–	–	–	91.2	35.4	61.6	54.3	14.4
[6]	–	–	–	–	72.6	2.07	52.8	63.9	38.6
[7]	–	–	–	–	83.6	92.9	65.4	9.62	2.38
[8]	–	–	–	–	83.9	67.2	62.5	22.1	12.1
[9]	–	–	–	–	94.4	44.8	95.8	65.5	47.8
[10]	–	–	–	–	46.7	24	70.6	59.3	15.4
[11]	–	–	–	–	97.3	87.1	72.2	10.6	6.67
[12]	–	–	–	–	57.4	2.24	1.33	17	1.33
[13]	–	–	–	–	91.8	35.2	87.8	72.1	40.8
[14]	–	–	–	–	61.6	< 0	63.4	64.1	22
[15]	–	–	–	–	86.5	81.9	87.9	64.2	48.8
[16]	–	–	–	–	68.9	0.773	23.7	24.5	5.28

C[C@]12C=CC(=O)C=C1CC[C@@H]1[C@@H]2[C@@H](O)C[C@@]2(C)[C@H]1CC[C@]2(O)C(=O)CO [Prednisolone]
cell viability [%], HL-60 [1]
Details	0.001 µM	0.01 µM	0.1 µM	1 µM	10 µM
co-treatment: AZD3965 100 nM	82.4	96.7	103	103	96.2
co-treatment: DMSO vehicle	95.9	104	100	103	101.5
co-treatment: GSK2194069 100 nM	94.8	101	98.4	101	100
co-treatment: pictilisib 100 nM	90	92.8	99.1	105.5	95.8

Details	area under dose-response curve, co-treatment: AZD3965 100 nM	area under dose-response curve, co-treatment: DMSO vehicle	area under dose-response curve, co-treatment: GSK2194069 100 nM	area under dose-response curve, co-treatment: pictilisib 100 nM	cell viability, 1 nM [%]	cell viability, 10 nM [%]	cell viability, 100 nM [%]	cell viability, 1000 nM [%]	cell viability, 10000 nM [%]
HL-60 [17]	< 0.0301	< 0.0301	< 0.0301	< 0.0301	–	–	–	–	–
[2]	–	–	–	–	73.8	39.2	17.1	31.4	2.16
[3]	–	–	–	–	96.9	93.5	85	83	64.8
[4]	–	–	–	–	89	88.8	95.7	83.9	79
[5]	–	–	–	–	93.4	82	92.6	> 100	> 100
[6]	–	–	–	–	85.8	46.4	80.9	94	68.3
[7]	–	–	–	–	81.1	88.6	86.1	75.4	61.2
[8]	–	–	–	–	83.7	69.7	> 100	> 100	97.2
[9]	–	–	–	–	95.6	86.1	87.2	77.3	76.4
[10]	–	–	–	–	95	71.2	73.9	46	35.2
[11]	–	–	–	–	95.3	78.8	78.4	75.8	53.7
[12]	–	–	–	–	40.8	10.3	21.7	72	20.7
[13]	–	–	–	–	> 100	75.7	89.4	78.5	66.2
[14]	–	–	–	–	66.5	60.7	84.5	83.6	83.4
[15]	–	–	–	–	86.3	70.1	87.3	59.3	47.6
[16]	–	–	–	–	99.2	18.2	84.8	> 100	> 100
